Literature values, collected in publication PMC6061410 (Clinical Drug Investigation, 2018).

Conditions: cited from earlier work

C[C@@H](Oc1ccc(S(C)(=O)=O)cc1C(=O)N1C[C@@H]2C[C@]2(c2cc(C(F)(F)F)on2)C1)C(F)(F)F [BI 425809]
Adjusted gMean ratio Cmax, tablet fasted vs. oral solution fasted (90% CI 45.1–55.4): 50.0%
Adjusted gMean ratio AUC0–tz, tablet fasted vs. oral solution fasted (90% CI 74.0–87.6): 80.5%
Adjusted gMean ratio AUC0–tz, tablet fed vs. strongly fasted (high-fat/high-calorie breakfast ~ 1000 kcal, 90% CI 115.7–137.0): 125.9%
Adjusted gMean ratio Cmax, tablet fed vs. strongly fasted (high-fat/high-calorie breakfast ~ 1000 kcal, 90% CI 128.3–157.4): 142.1%
increase in AUC, high-fat/high-calorie meal vs. fasted (single dose 25 mg tablet): 26%
increase in Cmax, high-fat/high-calorie meal vs. fasted (single dose 25 mg tablet): 42%
median time to maximum plasma concentration (single doses 0.5–150 mg, oral solution, young healthy male volunteers): ~ 45 min
tolerability of single doses (single doses up to 100 mg, oral solution, young healthy male volunteers): generally well tolerated
